Experimental data from article PMC5652740, “Inhibition of HIV-1 infection in humanized mice and metabolic stability of protein phosphatase-1-targeting small molecule 1E7-03” (Oncotarget, 2017).

Experiments:
[1] = system: PP1 regulatory subunit Sds22; experiment: Label free quantitative proteomics of HIV-1 infected CEM T cells; type: cell-based; conditions: 10 μM, SIEVE quantification
Description: CEM T cells were infected with VSVG-pseudotyped pNL4-3.Luc.R-E-virus (HIV-1-LUC-G) and cultured in 100 mm culture plates (1.25 × 10^6 cells/ml) containing 10 ml of supplemented RPMI media at 37°C and 5% CO2. The cells were treated with 10 μM of 1E7-03 or vehicle (DMSO) and incubated overnight. Cells were collected and washed three times with PBS. To obtain cell lysates, the cells were suspended in 1 ml cold whole cell lysis buffer (50 mM Tris-HCl, pH 7.5, 0.5 M NaCl, 1% NP-40, 0.1% SDS) with protease and phosphatase inhibitors (P044-1ML, Sigma Aldrich). The cytosolic protein fraction was isolated by centrifugation at 13,000xg for 30 min at 4 °C to remove cellular debris. […]
Tryptic peptides were purified by Pierce™ Graphite Spin Columns following manufacturer's instructions, resuspended in water with 0.1% formic acid (v/v) and analyzed by an LTQ Orbitrap XL mass spectrometer (Thermo Fisher Scientific) coupled to a Prominence Nano LC (Shimadzu) using the Xcalibur version 2.7.0 (Thermo Scientific). […]
LC-MS/MS raw data were searched by Proteome Discoverer 1.4 using Sequest search engine (Thermo Fisher Scientific), against the Uniprot Human database (6/10/2016, 135431 sequences) at a false discovery cut off ≤1%. […] The label-free quantification of peptides eluting between 10 and 80 min was performed with SIEVE 2.1 software (Thermo Scientific). […]

[2] = 1E7-03 degradation in guinea pig plasma; type: in vitro ADME; conditions: 10 μM, 37°C, 4 hrs
Description: 1E7-03 dissolved in DMSO (10 mM stock solution) was mixed with mouse plasma (Sigma-Aldrich), guinea pig plasma (Sigma-Aldrich), ferret plasma (BioreclamationIVT), monkey plasma (courtesy of Binhua Ling, PhD, Tulane University) and human plasma (collected from heathy volunteer by the Center for Sickle Cell Disease at Howard University) to the final concentration of 10 μM and incubated at 37°C. Aliquots were collected at different time points for up to 24 hrs. The resulting sample (60 μl) was mixed with 240 μl of cold acetone, vortexed for 2 min, kept at –20°C for 30 min, and then the precipitated protein was removed by centrifugation at 13,000 × g for 5 min. The supernatant was transferred to a clean test tube and evaporated to dryness using a SpeedVac concentrator. The residue reconstituted in 60 μl of acetonitrile for LC/FT-MS analysis. All experiments were run parallel in triplicates.

HIV-1 integration = experiment: HIV-1 integration, Alu-Gag real-time PCR in CEM T cells; type: cell-based; conditions: 10 μM, DNA 6 hrs post infection, in words
Description: To assay HIV-1 integration, CEM T cells were infected with HIV-1-LUC-G virus and treated with 10 μM 1E7-03 or DMSO. Total DNA was extracted from cells using lysis buffer (10 mM Tris-HCl pH 8.0, 10 mM EDTA, 5 mM NaCl, 200 μg/ml proteinase K). The cells were lysed for 20-30 min at room temperature and proteinase K was inactivated by heating to 95°C for 5 min. For the real-time PCR analysis, 100 ng DNA was amplified using Roche Light Cycler 480 (Roche Diagnostics) and SYBR Green1 Master mix (Roche Diagnostics). PCR was carried with initial preincubation for 5 min at 45°C and then for 3 in at 95°C followed by 45 cycles of denaturation at 95°C for 15 sec, annealing and extension at 60°C for 45 sec, and final extension at 72°C for 10 sec. Integrated HIV-1 DNA was amplified using the following primers: Alu forward 5'-[…]-3', and Gag reverse 5'-[…]-3'.

## CCNC(=O)NC(=O)C(C)OC(=O)c1c2c(nc3ccccc13)/C(=C/c1ccc(OC)c(OC)c1)CC2 (stereo not shown) [1E7-03]
[1]
  Sds22 Ratio 1E7-03/Control: 0.804
  α-tubulin Ratio 1E7-03/Control: 0.936
[2]
  % of compound degraded: about 80%
HIV-1 integration
  effect on HIV-1 integration: did not show any significant effect
